Laboratory results reported in US5527781A, “4-O-(aminoglycosyl)- or 4,6-di-O-(aminoglycosyl)-2,5-dideoxy-5,5-difluorostreptamine derivatives” (Zaidan Hojin Biseibutsu Kagaku Kenkyu Kai, priority 1990, dated 1996).
≈ marks a conversion by molar mass, not a printed value. Like-named read-outs stand apart in the source and are kept apart here.

Assays:
Serratia marcescens = experiment: MIC, standard serial dilution method; type: cell-based; details: Mueller-Hinton agar, 37° C
[1] = tested on: Staphylococcus aureus 209P; experiment: MIC, standard serial dilution method; type: cell-based; details: Mueller-Hinton agar, 37° C
[2] = tested on: Corynebacterium bovis 1810; experiment: MIC, standard serial dilution method; type: cell-based; details: Mueller-Hinton agar, 37° C
Providencia sp. Pv 16 = experiment: MIC, standard serial dilution method; type: cell-based; details: SP.PV16, resistance mechanism AAC(2'), Mueller-Hinton agar, 37° C
[3] = tested on: Escherichia coli K-12 LA 290 R55; experiment: microbe, parasite or virus in culture; type: cell-based; details: K12LA290R55; Escherichia coli K-12 LA 290 R55; resistance mechanism ANT(2"); Mueller-Hinton agar, 37° C
Escherichia coli JR225 = experiment: microbe, parasite or virus in culture; type: cell-based; details: resistance mechanism AAC(3), Mueller-Hinton agar, 37° C
[4] = tested on: Escherichia coli K-12 ML 1629; experiment: microbe, parasite or virus in culture; type: cell-based; details: K12ML1629
[5] = tested on: Pseudomonas aeruginosa GN 315; experiment: MIC, standard serial dilution method; type: cell-based; details: GN315
Mycobacterium 607 = experiment: MIC, standard serial dilution method; type: cell-based; details: Mueller-Hinton agar, 37° C
[6] = tested on: Staphylococcus aureus Ap01; experiment: MIC, standard serial dilution method; type: cell-based; details: resistance mechanism ANT(4'), Mueller-Hinton agar, 37° C
Escherichia coli K-12 R5 = experiment: microbe, parasite or virus in culture; type: cell-based; details: K12R5; Escherichia coli K-12 R5; resistance mechanism AAC(6'); Mueller-Hinton agar, 37° C
Proteus rettgeri GN 311 = experiment: MIC, standard serial dilution method; type: cell-based; details: Providencia rettgeri, GN311; Proteus rettgeri GN 311; Mueller-Hinton agar, 37° C; read-out: MIC
in vivo = details: mouse, iv, pH 7
Excerpt: Further, in order to estimate acute toxicity of the compound of the general formula (I) according to this invention, some examples of the compounds of this invention were independently dissolved in water to prepare aqueous solutions (as adjusted to pH 7 by addition of hydrochloric acid). […] The tested compounds of this invention are expressed by the same abbreviations as in Table 1. […] The comparative compounds as tested are also expressed by the same abbreviations as in Table 1.

Escherichia coli K-12 = experiment: MIC, standard serial dilution method; type: cell-based; details: K12
Bacillus subtilis PCI219 = experiment: MIC, standard serial dilution method; type: cell-based; details: Mueller-Hinton agar, 37° C
[7] = tested on: Pseudomonas aeruginosa A3; experiment: MIC, standard serial dilution method; type: cell-based; details: Mueller-Hinton agar, 37° C
[8] = tested on: Klebsiella pneumoniae 22#3038; experiment: MIC, standard serial dilution method; type: cell-based; details: resistance mechanism APH(3')-II, ANT(2"), Mueller-Hinton agar, 37° C
[9] = tested on: Escherichia coli JR66/W677; experiment: microbe, parasite or virus in culture; type: cell-based; details: resistance mechanism APH(3')-II, ANT(2"), Mueller-Hinton agar, 37° C
[10] = Escherichia coli K-12 ML 1629, resistance mechanism APH(3')-I, Mueller-Hinton agar, 37° C, read-out: MIC
[11] = Pseudomonas aeruginosa GN 315, resistance mechanism AAC(6'), Mueller-Hinton agar, 37° C, read-out: MIC
[12] = Escherichia coli K-12, Mueller-Hinton agar, 37° C, read-out: MIC

SMILES | MIC (Serratia marcescens) [µg/mL] | MIC [1] [µg/mL] | MIC [2] [µg/mL] | MIC (Providencia sp. Pv 16) [µg/mL] | MIC [3] [µg/mL] | MIC (Escherichia coli JR225) [µg/mL] | MIC [4, 10] [µg/mL] | MIC [5, 11] [µg/mL] | MIC (Mycobacterium 607) [µg/mL] | MIC [6] [µg/mL] | MIC (Escherichia coli K-12 R5) [µg/mL] | MIC (Proteus rettgeri GN 311) [µg/mL] | MIC (Bacillus subtilis PCI219) [µg/mL] | MIC [7] [µg/mL] | MIC [8] [µg/mL] | MIC (Escherichia coli K-12; [12]) [µg/mL] | also measured
NC[C@H]1O[C@H](O[C@@H]2[C@@H](N)C[C@@H](N)[C@H](O[C@H]3O[C@H](CO)[C@@H](O)[C@H](N)[C@H]3O)C2(F)F)[C@H](O)[C@@H](O)[C@@H]1O [Compound 5FF-KMA, 5-deoxy-5,5-difluorokanamycin A] | 12.5 (≈ 24.8 µM) | 3.12 (≈ 6.18 µM) | 12.5 (≈ 24.8 µM) | 12.5 (≈ 24.8 µM) | 12.5 (≈ 24.8 µM) | 1.56 (≈ 3.09 µM) | > 100 | > 100 | 3.12 (≈ 6.18 µM) | 50 (≈ 99.1 µM) | > 100 | 1.56 (≈ 3.09 µM) | 0.78 (≈ 1.55 µM) | 6.25 (≈ 12.4 µM) |  |  | LD50 (in vivo): > 300 mg/kg; MIC (Escherichia coli K-12; Escherichia coli): 0.78 µg/mL (≈ 1.55 µM)
NC[C@H]1O[C@H](O[C@H]2[C@H](O)[C@@H](O[C@H]3O[C@H](CO)[C@@H](O)[C@H](N)[C@H]3O)[C@H](N)C[C@@H]2N)[C@H](N)[C@@H](O)[C@@H]1O [KMB, kanamycin B, reference compound] |  | 0.39 (≈ 0.807 µM) |  | 12.5 (≈ 25.9 µM) |  |  | > 100 |  |  |  |  | 0.2 (≈ 0.414 µM) | < 0.2 | 1.56 (≈ 3.23 µM) | > 100 | 0.39 (≈ 0.807 µM) | 
NC[C@H]1O[C@H](O[C@H]2[C@H](O)[C@@H](O[C@H]3O[C@H](CO)[C@@H](O)[C@H](N)[C@H]3O)[C@H](N)C[C@@H]2N)[C@H](O)[C@@H](O)[C@@H]1O [KMA, kanamycin A, reference compound] | 12.5 (≈ 25.8 µM) | 1.56 (≈ 3.22 µM) | 12.5 (≈ 25.8 µM) | 3.12 (≈ 6.44 µM) | 50 (≈ 103 µM) | 3.12 (≈ 6.44 µM) | > 100 | > 100 | 6.25 (≈ 12.9 µM) | 25 (≈ 51.6 µM) | > 100 | 0.78 (≈ 1.61 µM) | 0.78 (≈ 1.61 µM) | 6.25 (≈ 12.9 µM) | > 100 |  | MIC [9]: > 100 µg/mL; MIC (Escherichia coli K-12; Escherichia coli): 0.78 µg/mL (≈ 1.61 µM)
NC[C@H]1O[C@H](O[C@H]2[C@H](O)[C@@H](O[C@H]3O[C@H](CO)[C@@H](O)[C@H](N)[C@H]3O)[C@H](N)C[C@@H]2N)[C@H](N)C[C@@H]1O [TOB, 3'-deoxykanamycin B, reference compound] | 3.12 (≈ 6.67 µM) | < 0.2 | 1.56 (≈ 3.34 µM) | 6.25 (≈ 13.4 µM) | 12.5 (≈ 26.7 µM) |  |  | 25 (≈ 53.5 µM) | 0.39 (≈ 0.834 µM) | 12.5 (≈ 26.7 µM) | 25 (≈ 53.5 µM) | 0.39 (≈ 0.834 µM) | < 0.2 |  | 12.5 (≈ 26.7 µM) | 0.39 (≈ 0.834 µM) | MIC ([4]; Escherichia coli): 0.78 µg/mL (≈ 1.67 µM); LD50 (in vivo): ~80 mg/kg
NC[C@@H]1CC[C@@H](N)[C@@H](O[C@H]2[C@H](O)[C@@H](O[C@H]3O[C@H](CO)[C@@H](O)[C@H](N)[C@H]3O)[C@H](N)C[C@@H]2N)O1 [DKB, 3',4'-dideoxy-kanamycin B, reference compound] |  |  |  |  |  |  |  |  |  |  |  | < 0.2 | < 0.2 |  | 50 (≈ 111 µM) | 0.39 (≈ 0.864 µM) | MIC ([5]; Pseudomonas aeruginosa): 100 µg/mL (≈ 221 µM)
NCC[C@H](O)C(=O)N[C@@H]1C[C@H](N)[C@@H](O[C@H]2O[C@H](CN)CC[C@H]2N)[C@H](F)[C@H]1O[C@H]1O[C@H](CO)[C@@H](O)[C@H](N)[C@H]1O [Compound 5F-DKB-AHB, 1-N-[4-amino-2-(S)-hydroxybutyryl]-5,3',4'-trideoxy-5-fluorokanamycin B, reference compound] | 3.12 (≈ 5.63 µM) |  |  | 0.39 (≈ 0.703 µM) | 0.39 (≈ 0.703 µM) | < 0.2 | 0.39 (≈ 0.703 µM) |  |  | 1.56 (≈ 2.81 µM) | 12.5 (≈ 22.5 µM) |  | < 0.2 |  | 0.78 (≈ 1.41 µM) | < 0.2 | 
CN[C@@H]1[C@@H](O)[C@@H](O[C@H]2[C@H](NC(=O)[C@@H](O)CCN)C[C@H](N)[C@@H](O[C@H]3O[C@H]([C@@H](C)N)CC[C@H]3N)C2(F)F)OC[C@]1(C)O [5FF-Genta-C2-AHB, 1-N-[(S)-4-amino-2-hydroxybutyryl]-5-deoxy-5,5-difluorogentamicin C2] | 3.12 (≈ 5.34 µM) | 0.78 (≈ 1.33 µM) | 0.2 (≈ 0.342 µM) | 6.25 (≈ 10.7 µM) | 0.2 (≈ 0.342 µM) | < 0.2 | 0.39 (≈ 0.667 µM) | 100 (≈ 171 µM) | 3.12 (≈ 5.34 µM) | 12.5 (≈ 21.4 µM) | 3.12 (≈ 5.34 µM) | 0.78 (≈ 1.33 µM) | 0.2 (≈ 0.342 µM) | 3.12 (≈ 5.34 µM) | 1.56 (≈ 2.67 µM) | < 0.2 | MIC [9]: 0.78 µg/mL (≈ 1.33 µM)
